For 13 molecules, IC50 results are on record in ChEMBL document CHEMBL1799982, “Synthesis, protein kinase inhibitory potencies, and in vitro antiproliferative activities of meridianin derivatives” (J Med Chem, 2011).

Usually IC50 stands for the concentration that gives 50% inhibition.

Assay [1] addresses Cyclin-dependent kinase 5/CDK5 activator 1 (Homo sapiens, UniProt Q00535). Nature of the assay: Inhibition of human recombinant CDK5/p25 using Histone H1 and [gamma32]-ATP after 30 mins by scintillation counting. Format: protein-complex assay.
A short description of assay [2]: Inhibition of pig brain CK1 delta/epsilon using RRKHAAIGpSAYSITA as substrate. Further details: species or system Sus scrofa.
For assay [3], the target named is Glycogen synthase kinase-3 (Sus scrofa, UniProt B2LUN4+I6LNT8). Nature of the assay: Inhibition of pig brain GSK-3alpha/beta using YRRAAVPPSPSLSRHSSPHQSpEDEEE as substrate.
For assay [4], the target named is Dual specificity tyrosine-phosphorylation-regulated kinase 1A (Rattus norvegicus, UniProt Q63470). Nature of the assay: Inhibition of rat recombinant GST-tagged DYRK1A using myelin protein as substrate and [gamma32]-ATP after 30 mins by scintillation counting.
Assay [5] in a line: Antiproliferative activity against human primary fibroblasts after 48 hrs by resazurin reduction test. The following applies: Fibroblast. Format: cell-based.
The test system of the next assay is HT-22. Description: Antiproliferative activity against mouse HT22 cells by MTS reduction assay.
In a further assay the test system is SH-SY5Y. Description: Antiproliferative activity against human SH-SY5Y cells by MTS reduction assay. A general note: Formazan colour is commonly taken as a measure of viable cells.
The test system of another assay is IMR-32. Description: Antiproliferative activity against human IMR32 cells by MTS reduction assay.
The subject of a further assay is MCF7. Nature of the assay: Antiproliferative activity against human MCF7 cells after 48 hrs by resazurin reduction test. The following applies: MCF7, 48 h. (In general: Alamar Blue is a resazurin reagent that responds to reducing activity.)
For the next assay, the system named is PA-1. Description: Antiproliferative activity against human PA1 cells after 48 hrs by resazurin reduction test. In kind it is functional, cell-based. Particulars: PA-1, 48 h.
Another assay relates to PC-3. Nature of the assay: Antiproliferative activity against human PC3 cells after 48 hrs by resazurin reduction test. Particulars: PC-3, 48 h.
In a further assay the test system is DU-145. Nature of the assay: Antiproliferative activity against human DU145 cells after 48 hrs by resazurin reduction test. In kind it is functional, cell-based. Particulars: DU-145, 48 h.
For assay [6], the target named is Dual specificity protein kinase CLK1 (Homo sapiens, UniProt P49759).
Dual specificity protein kinase CLK1, sequence (P49759 whole entry): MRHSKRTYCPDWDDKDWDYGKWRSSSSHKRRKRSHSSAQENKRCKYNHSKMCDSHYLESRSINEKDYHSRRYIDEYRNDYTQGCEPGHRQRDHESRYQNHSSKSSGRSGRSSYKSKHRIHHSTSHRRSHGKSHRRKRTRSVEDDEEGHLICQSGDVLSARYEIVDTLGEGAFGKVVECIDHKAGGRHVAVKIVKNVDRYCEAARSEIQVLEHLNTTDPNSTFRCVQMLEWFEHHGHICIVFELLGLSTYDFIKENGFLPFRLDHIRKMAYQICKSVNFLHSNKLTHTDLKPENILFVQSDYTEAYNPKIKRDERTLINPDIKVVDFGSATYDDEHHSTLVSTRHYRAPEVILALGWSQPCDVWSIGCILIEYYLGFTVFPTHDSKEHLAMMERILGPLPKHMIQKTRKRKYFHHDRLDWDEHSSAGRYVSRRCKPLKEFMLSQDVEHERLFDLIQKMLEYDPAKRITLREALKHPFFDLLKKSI

Cyclin-dependent kinase 5/CDK5 activator 1, sequence (Q00535 whole entry): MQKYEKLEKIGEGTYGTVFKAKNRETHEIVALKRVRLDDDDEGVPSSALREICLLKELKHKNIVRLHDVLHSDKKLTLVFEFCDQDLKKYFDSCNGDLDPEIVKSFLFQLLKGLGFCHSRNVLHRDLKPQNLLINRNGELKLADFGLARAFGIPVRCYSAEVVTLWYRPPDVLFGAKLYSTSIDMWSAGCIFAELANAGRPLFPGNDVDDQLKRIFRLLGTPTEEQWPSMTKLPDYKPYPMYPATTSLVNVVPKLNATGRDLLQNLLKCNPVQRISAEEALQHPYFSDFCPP
Cyclin-dependent kinase 5/CDK5 activator 1, sequence (Q15078 whole entry, further chain): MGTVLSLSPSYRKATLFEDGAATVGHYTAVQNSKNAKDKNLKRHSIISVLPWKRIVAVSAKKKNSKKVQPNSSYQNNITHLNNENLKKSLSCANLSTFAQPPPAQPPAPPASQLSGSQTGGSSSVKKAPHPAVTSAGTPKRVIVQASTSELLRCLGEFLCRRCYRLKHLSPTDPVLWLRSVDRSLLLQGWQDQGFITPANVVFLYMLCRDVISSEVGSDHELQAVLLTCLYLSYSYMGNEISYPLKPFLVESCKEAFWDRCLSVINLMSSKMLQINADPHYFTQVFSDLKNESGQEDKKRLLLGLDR

Regarding `Nc1ncc(I)c(-c2c[nH]c3ccccc23)n1`, the IC50 in assay [1] came to 1.4 µM; in assay [2], 0.9 µM; in assay [3] it was 3.7 µM; in assay [4], 0.066 µM; in [5], 8 µM; with HT-22 it was 7.3 µM. In addition, the IC50 was 7.5 µM with SH-SY5Y; 10 µM in the assay on IMR-32; 17 µM with MCF7; 3.3 µM with PA-1; 10.6 µM in the assay with PC-3; 5 µM in the assay on DU-145. Moreover, the IC50 in assay [6] was found to be 0.03 µM.
For `CC(=O)c1ccc(-c2cnc(N)nc2-c2c[nH]c3c(Br)cccc23)cc1`, the IC50 in assay [1] was over 10 µM; in assay [2] it was over 10 µM; in assay [3] it was 4.5 µM; in assay [4] it was 0.29 µM; in assay [5], 18.4 µM; with HT-22 it was over 10 µM. Besides, the half-maximal inhibitory concentration (IC50) was over 10 µM in the assay with SH-SY5Y; over 10 µM in the assay with IMR-32; over 10 µM with MCF7; 0.8 µM in the assay with PA-1; 3.6 µM with PC-3; 5.7 µM in the assay with DU-145. In assay [6], the IC50 came out at 0.38 µM.
Take `Nc1ncc(I)c(-c2c[nH]c3cc([N+](=O)[O-])ccc23)n1`: the IC50 in assay [1] is 1.6 µM; in assay [2] it was 1 µM; in assay [3], 2.6 µM; in assay [4], 0.095 µM; in assay [5], 13 µM; in the assay on HT-22, 18 µM. The IC50 in the assay on SH-SY5Y was 12 µM; in the assay on IMR-32 it was 10 µM; in the assay on MCF7 it was over 25 µM; in the assay with PA-1, 2 µM; in the assay on PC-3, 11 µM; with DU-145, 6.3 µM. Half-maximal inhibition in assay [6] (IC50) required 0.067 µM.
On to `COc1cccc(-c2cnc(N)nc2-c2c[nH]c3c(Br)cccc23)c1`, for which the IC50 in assay [1] was over 10 µM; in assay [2], 4.2 µM; in assay [3] it was over 10 µM; in assay [4] it was 0.85 µM; in assay [5] it was 31 µM; in the assay with HT-22 it was over 10 µM. In addition, the IC50 in the assay with SH-SY5Y was over 10 µM; in the assay with IMR-32, over 10 µM; in the assay with MCF7, over 10 µM; in the assay on PA-1, 13 µM; in the assay with PC-3, 29 µM; in the assay on DU-145, 33 µM. In assay [6], this molecule gave an IC50 of 0.87 µM.
For the molecule `CC(=O)Nc1ccc(-c2cnc(N)nc2-c2c[nH]c3c(Br)cccc23)cc1`, the IC50 is 7.5 µM in [1]; over 10 µM in assay [2]; 2.2 µM in [3]; 0.19 µM in assay [4]; 8 µM in assay [5]; over 25 µM with HT-22. Besides, the IC50 in the assay with SH-SY5Y was 25 µM; in the assay with IMR-32, 25 µM; with MCF7 it was over 25 µM; in the assay with PA-1, 3 µM; in the assay on PC-3, 5 µM; in the assay with DU-145, 13 µM. In assay [6], this molecule gave an IC50 of 0.087 µM.
For `Nc1ncc(I)c(-c2c[nH]c3cc(Br)ccc23)n1`, the IC50 in assay [1] was 0.68 µM; in assay [2], 0.7 µM; in assay [3], 1.1 µM; in assay [4], 0.034 µM; in [5] it was 3.5 µM; with HT-22, 5.1 µM. Besides, the IC50 is 3.2 µM in the assay on SH-SY5Y; 3.8 µM in the assay with IMR-32; 5.2 µM with MCF7; under 1 µM in the assay on PA-1; 2.9 µM with PC-3; under 1 µM in the assay with DU-145. In [6], 0.032 µM corresponded to half-maximal inhibition (IC50).
Regarding `Nc1ncc(I)c(-c2c[nH]c3c([N+](=O)[O-])cccc23)n1`, the IC50 in [1] is over 10 µM; in [2], over 10 µM; in assay [3], over 10 µM; in [4], 0.46 µM; in assay [5], 4.7 µM; in the assay with HT-22, over 10 µM. The IC50 is over 10 µM with SH-SY5Y; over 10 µM in the assay on IMR-32; over 10 µM in the assay with MCF7; 3.2 µM in the assay on PA-1; 6 µM in the assay on PC-3; 5.2 µM in the assay on DU-145. The IC50 in [6] worked out at 0.041 µM.
As to `Nc1ncc(I)c(-c2c[nH]c3ccc([N+](=O)[O-])cc23)n1`, the IC50 was 1.6 µM in assay [1]; 0.42 µM in assay [2]; 0.66 µM in [3]; 0.25 µM in assay [4]; 19 µM in [5]; 20 µM with HT-22. For the same molecule, the IC50 with SH-SY5Y was over 25 µM; in the assay on IMR-32, 10 µM; with MCF7 it was over 25 µM; with PA-1 it was 8.4 µM; in the assay with PC-3, 26 µM; with DU-145, 13.3 µM. The molecule further registered an IC50 in assay [6] of 0.12 µM.
As to `CC(=O)c1ccc(-c2cnc(N)nc2-c2c[nH]c3cc(Br)ccc23)cc1`, the IC50 in [1] was over 10 µM; in assay [2], over 10 µM; in [3], 2 µM; in [4], over 10 µM; in assay [5], under 0.6 µM; in the assay with HT-22, 2.5 µM. In addition, the IC50 in the assay on SH-SY5Y is 0.4 µM; in the assay on IMR-32, 0.33 µM; in the assay with MCF7, 1 µM; in the assay on PA-1, under 0.6 µM; with PC-3, under 0.6 µM; with DU-145, under 0.6 µM. This molecule also registered an IC50 in assay [6] of 1.8 µM.
As for `Nc1ccc2[nH]cc(-c3nc(N)ncc3I)c2c1`, the IC50 in [1] was over 10 µM; in [2], 0.27 µM; in assay [3] it was over 10 µM; in [4] it was 2.3 µM; in [5], 44 µM; in the assay on HT-22 it was over 10 µM. Moreover, the IC50 in the assay on SH-SY5Y is over 10 µM; in the assay with IMR-32 it was over 10 µM; in the assay on MCF7, over 10 µM; with PA-1, 11 µM; in the assay with PC-3, 48 µM; with DU-145, 40 µM. Moreover, in [6], the IC50 was 0.61 µM.
As for `CC(=O)Nc1ccc(-c2cnc(N)nc2-c2c[nH]c3cc(Br)ccc23)cc1`, the IC50 is over 10 µM in [1]; 8.1 µM in assay [2]; 1.6 µM in assay [3]; 3.1 µM in [4]; 24 µM in assay [5]; over 10 µM in the assay with HT-22. Moreover, the concentration for half-maximal inhibition (IC50) with SH-SY5Y was over 10 µM; with IMR-32 it was over 10 µM; in the assay with MCF7, over 10 µM; in the assay on PA-1, 12 µM; in the assay with PC-3, 14 µM; with DU-145 it was 20 µM. The molecule also yielded an IC50 in assay [6] of 0.53 µM.
For `Nc1ncc(I)c(-c2c[nH]c3cccc(N)c23)n1`, the IC50 was over 10 µM in assay [1]; over 10 µM in [2]; over 10 µM in assay [3]; 2.8 µM in [4]; over 50 µM in assay [5]; over 10 µM in the assay on HT-22. Moreover, the IC50 was over 10 µM in the assay on SH-SY5Y; over 10 µM with IMR-32; over 10 µM in the assay with MCF7; 18 µM in the assay on PA-1; over 50 µM in the assay with PC-3; over 50 µM with DU-145. Further, half-maximal inhibition in [6] (IC50) required 1 µM.
With `Nc1ncc(-c2ccc(C(F)(F)F)cc2)c(-c2c[nH]c3c(Br)cccc23)n1`, the IC50 in assay [1] is over 10 µM; in assay [2], over 10 µM; in assay [3], 8.5 µM; in [4], 1.25 µM; in assay [5], 14 µM; with HT-22 it was over 10 µM. The IC50 was over 10 µM in the assay with SH-SY5Y; over 10 µM with IMR-32; over 10 µM in the assay on MCF7; 17 µM in the assay on PA-1; 8 µM with PC-3; 18 µM in the assay with DU-145. Also, in assay [6], the IC50 is 1.5 µM.
